For data set [1], the system named is P. aeruginosa (ATCC 22108). In words: Growth inhibitory assay (time curve, OD620), P. aeruginosa. The format is cell-based, Pseudomonas aeruginosa. To be noted: for Growth inhibition of P. aeruginosa over time: OD620 measured 3 to 8 h after treatment, 96-well plates, different peptide concentrations (25 μg/ml and lower). How it is done: (§1) The growth curves for K. pneumoniae (ATCC 700603) and P. aeruginosa (ATCC 22108) treated with Molecule 3 and Molecule 7 over time were determined based on measurements taken at 620 nm at each collection time. Different concentrations of the peptide were added to the tested strains (K. pneumonia and P. aeruginosa), which were cultured in 96 well plates using the same method as used for the determination of the antimicrobial activity of the AMPs and the MIC.
(§2) In addition to the determined MICs, we investigated the rate at which the peptides influence the bacterial growth over time (Figures 1 and 2). The OD620 was measured from 3 to 8 h after treatment with a microplate reader, with Ampicillin as a positive control.

In data set [2] the test system is K. pneumoniae (ATCC 700603). In words: Growth inhibitory assay (time curve, OD620), K. pneumoniae. It is filed as cell-based, Klebsiella pneumoniae. To be noted: for Growth inhibition of K. pneumoniae over time: OD620 measured 3 to 8 h after treatment, 96-well plates, different peptide concentrations (25 μg/ml and lower). Here is the method: as §1, §2
Data set [3] concerns methicillin-sensitive S. aureus (ATCC 25923). In words: Microtiter broth dilution MIC, MSSA. The format is cell-based, Staphylococcus aureus. Conditions: for MIC, MSSA: microtiter broth dilution (CLSI), TSB, 0.5 McFarland, 24 h 37°C, INT 3 h, absorbance 620 nm, MIC = about 90% killing of inoculum, triplicate, repeated three times; for Sensitivity of MSSA (ATCC 25923) to the peptide: microtiter screening, up to 500 μg/ml. Here is the method: (§3) The antibacterial activity of the putative antimicrobial peptides was carried out on Staphylococcus aureus spp., a Gram-positive bacterium obtained from the American Type Culture Collection (ATCC), with the S. aureus spp. comprising of the methicillin-sensitive S. aureus (ATCC 25923) and the methicillin-resistant S. aureus (ATCC 33591) strains. The other bacterial strains tested were K. pneumoniae (ATCC 700603) and P. aeruginosa (ATCC 22108) which are Gram-negative bacteria.
(§4) A stock solution of AMPs was prepared by dissolving an amount of AMPs in sterile distilled water (dH2O), and the various AMP working concentrations used in the microtiter broth dilution assay were prepared in two-fold serial dilutions starting at a concentration of 500 μg/ml to 1.5625 μg/ml. Ampicillin was utilized as the positive control in this assay and a working stock solution of 100 μg/ml was prepared in distilled water.
(§5) The microtiter broth dilution method was employed to measure the antibacterial activity of the AMP's. The assay was performed according to the standards and guidelines as stipulated in the Clinical and Laboratory Standards Institute (CLSI). In brief, the test microorganisms (MRSA (ATCC 33591), MSSA (ATCC 25923), K. pneumoniae (ATCC 700603), and P. aeruginosa (ATCC 22108)) were grown to the midlogarithmic phase in Tryptic Soy Broth (TSB) on a shaker set at 37°C and shaking at 150 rpm. The turbidity was adjusted to a 0.5 McFarland standard with a final volume of 10 ml. From the stock of prepared AMP solutions, various working peptide concentrations (500 μg/ml to 1.5625 μg/ml) were prepared, and a mixture of the bacteria with the peptides was incubated in a 96 well flat bottom plate for 24 h at 37°C. Following 24 h incubation, 40 μl of 2-(4-iodophenyl)-3-(4-nitrophenyl)-5-phenyl-2H-tetrazolium (INT) was added to each well and incubated again for 3 h. Absorbance readings were taken at 620 nm on a microtiter plate reader (Omega®POLARstar BMG Labtech, USA).
(§6) All the antibacterial assays of the AMPs were prepared in triplicate, and the experiments were repeated three times to ensure the reproducibility of the testing. Absorbance results were exported into an Excel file, where they were transformed into a percentage, in a Normalizing process. The MIC of each peptide was defined as the concentration resulting in about 90% killing of the initial inoculums.
(In general: Dilution methods test growth across graded concentrations, often in twofold steps.)

The test system of data set [4] is K. pneumoniae (ATCC 700603). In words: Microtiter broth dilution MIC, K. pneumoniae. To be noted: for MIC, K. pneumoniae: microtiter broth dilution (CLSI), TSB, 0.5 McFarland, 24 h 37°C, INT 3 h, absorbance 620 nm, MIC = about 90% killing of inoculum, triplicate, repeated three times. The format is cell-based, Klebsiella pneumoniae. Here is the method:
as §3, §4, §5, §6

The subject of data set [5] is P. aeruginosa (ATCC 22108). In words: Microtiter broth dilution MIC, P. aeruginosa. The format is cell-based, Pseudomonas aeruginosa. To be noted: for MIC, P. aeruginosa: microtiter broth dilution (CLSI), TSB, 0.5 McFarland, 24 h 37°C, INT 3 h, absorbance 620 nm, MIC = about 90% killing of inoculum, triplicate, repeated three times. How it is done: as §3, §4, §5, §6

Data set [6] has as its system methicillin-resistant S. aureus (ATCC 33591). In words: Microtiter broth dilution MIC, MRSA. It is filed as cell-based, Staphylococcus aureus. To be noted: for MIC, MRSA: microtiter broth dilution (CLSI), TSB, 0.5 McFarland, 24 h 37°C, INT 3 h, absorbance 620 nm, MIC = about 90% killing of inoculum, triplicate, repeated three times; for Sensitivity of MRSA (ATCC 33591) to the peptide: microtiter screening, up to 500 μg/ml. Here is the method: as §3, §4, §5, §6

A further data set relates to HEK293T cell line. In words: MTT cytotoxicity assay, HEK293T. It is filed as cell-based, human. To be noted: 48 h treatment; for cell lines inhibition, HEK293T: 25 μg/ml peptide; for Cell viability, HEK 293T: 100 μg/ml peptide, one value given for both peptides, repeated three times. How it is done: (§7) The cytotoxicity activity of the AMPs was measured by using the 3-(4,5-dimethylthiazol-2-yl)-2,5- diphenyltetrazolium bromide (MTT) assay as described by Freimoser. In brief, after the trypsinisation of HEK293T and HepG2 cells, 1 × 10^4 cells/well were seeded in a 96-well sterile plate and grown to confluence in Dulbecco's modified Eagle's medium containing 10% fetal calf serum. Molecule 3 and Molecule 7 were each added to the wells at different concentrations (10 μg/ml, 25 μg/ml, 50 μg/ml, and 100 μg/ml). Cells treated with 6% DMSO served as positive control. After 48 h after treatment with the peptides, 20 μl of MTT solution was added to each well, and the plates were incubated in a humidified incubator for 3 h in 5% CO2 at 37°C. After incubation, the media was removed and dimethyl sulfoxide (DMSO) (100 μl per well) was added into each well and the plate was again incubated in a shaker at 37°C, 5% CO2 incubator for 10 min. The plates were gently swirled for 10 min at room temperature to dissolve the precipitate. The absorbance was determined using a multiplate reader (Omega®POLARstar BMG Labtech, USA) at a wavelength of 570 nm, 600 nm, and 630 nm.
(§8) The assay was repeated three times to confirm the reproducibility of the experiment. The final absorbance of the treated cells was obtained by subtracting the background absorbance of the multi-well plate at 630 nm and from the 570 nm measurements. The percentage cell viability was calculated using the following formulae:(1) Cell viability %=OD570−OD630Treated sample/OD570−OD630Untreated control×100.
(§9) Absorbance results were exported into an Excel file, where they were transformed into a percentage, in a process called normalizing.
For orientation: Tetrazolium assays rely on reduction of a dye to a coloured formazan, in cell work by metabolically active cells.

The test system of a further data set is HepG2 cell line. In words: MTT cytotoxicity assay, HepG2. Conditions: 48 h treatment; for cell lines inhibition, HepG2: 25 μg/ml peptide; for Cell viability, HepG2: 100 μg/ml peptide, one value given for both peptides, repeated three times. It is filed as cell-based, human. How it is done: as §7, §8, §9
Setting [7] is: 100 μg/ml, OD620 time curve 3 to 8 h.

The text below walks through data of paper PMC7168710, “Antibacterial Activity of Rationally Designed Antimicrobial Peptides” (International Journal of Microbiology, 2020).

Values after ≈ are worked out from the molar mass of the structure shown.

For orientation: MIC means the lowest concentration found to suppress growth. Turning to `CC1(C)S[C@@H]2[C@H](NC(=O)[C@H](N)c3ccccc3)C(=O)N2[C@H]1C(=O)O` [Ampicillin, reference compound], in data set [1] (setting [7]), the “Growth inhibition of P. aeruginosa, positive control” value is on record as “could inhibit the growth”. Further, the “Growth inhibition of K. pneumoniae, positive control” value in data set [2] (setting [7]) is “failed to inhibit the growth”. In addition, the MIC in data set [3] (Staphylococcus aureus, read-out: MIC, MSSA) was greater than 100 µg/mL; in data set [4] (Klebsiella pneumoniae, ATCC700603, read-out: MIC, K. pneumoniae) it was greater than 100 µg/mL; in data set [5] (Pseudomonas aeruginosa, ATCC22108, read-out: MIC, P. aeruginosa) it was 100 µg/mL (≈ 286 µM); in data set [6] (Staphylococcus aureus, read-out: MIC, MRSA), greater than 100 µg/mL.
As to “CLKSGAICHPVFCPRRYKQIGTCGLPGTKCCKKP [Molecule 8, putative anti-HIV antimicrobial peptide, chemically synthesized by solid-phase method]”, the “MIC, MSSA” value in data set [3] was greater than 500 µg/mL. For the same compound, the “MIC, K. pneumoniae” value in data set [4] is greater than 500 µg/mL. In addition, the “MIC, P. aeruginosa” value in data set [5] is greater than 500 µg/mL. Further, the “MIC, MRSA” value in data set [6] is greater than 500 µg/mL.
“CLRYKKPECQSDWQCPGKKRCCPDTCGIKCLDPVDTPNPTRRKPGKCPVTYGQCLMLNPPNFCEMDGQCKRDLKCCMGM [Molecule 1, putative anti-HIV antimicrobial peptide, chemically synthesized by solid-phase method]”: the “MIC, MSSA” value in data set [3] was greater than 500 µg/mL. Also, the “MIC, K. pneumoniae” value in data set [4] came to 500 µg/mL. The “MIC, P. aeruginosa” value in data set [5] was greater than 500 µg/mL. In addition, the “MIC, MRSA” value in data set [6] is greater than 500 µg/mL.
In the case of “RWKIFKKIEKMGRNIRDGIVKAGPAIEVLGSAKAIGK [Molecule 7, putative anti-HIV antimicrobial peptide, chemically synthesized by solid-phase method]”, the “Growth inhibition of P. aeruginosa over time” value in data set [1] is reported as “could not inhibit P. aeruginosa growth at concentrations lower than the MIC”. Also, the “Growth inhibition of K. pneumoniae over time” value in data set [2] is on record as “could not suppress the growth of K. pneumoniae (ATCC 700603) at concentrations lower than the respective MIC values”. In addition, in the data set on HEK293T cell line, the “cell lines inhibition, HEK293T” value is listed as “more than 90%” and the “Cell viability, HEK 293T” value came out at 59.29%. Further, in data set [3], the “MIC, MSSA” value was greater than 500 µg/mL and the “Sensitivity of MSSA (ATCC 25923) to the peptide” value is reported as “insensitive”. The “MIC, K. pneumoniae” value in data set [4] came out at 12.5 µg/mL. Besides, the “MIC, P. aeruginosa” value in data set [5] is 6.25 µg/mL. Also, in data set [6], the “MIC, MRSA” value is greater than 500 µg/mL and the “Sensitivity of MRSA (ATCC 33591) to the peptide” value is “insensitive”. Moreover, in the data set with HepG2 cell line, the “cell lines inhibition, HepG2” value is on record as “more than 90%” and the “Cell viability, HepG2” value came to 79.5%.
On to “RWKLFKKIEKVGRNVRDGLIKAGPAIAVIGQAKSLGK [Molecule 3, putative anti-HIV antimicrobial peptide, chemically synthesized by solid-phase method]”, for which the “Growth inhibition of P. aeruginosa over time” value in data set [1] is “able to inhibit P. aeruginosa at all the concentrations and for the duration of the experiment”. For the same compound, the “Growth inhibition of K. pneumoniae over time” value in data set [2] was “able to suppress the growth of K. pneumoniae (ATCC 700603) at concentrations equal to the MIC (12.5 μg/ml) and 2x MIC”. For the same compound, the “Period of growth suppression of K. pneumoniae” value in data set [2] (peptide concentration 6.25 μg/ml, OD620 time curve) is reported as 4 h. Also, in the data set on HEK293T cell line, the “cell lines inhibition, HEK293T” value is “more than 90%” and the “Cell viability, HEK 293T” value is 59.29%. In data set [3], the “MIC, MSSA” value is greater than 500 µg/mL and the “Sensitivity of MSSA (ATCC 25923) to the peptide” value is on record as “insensitive”. For the same compound, the “MIC, K. pneumoniae” value in data set [4] stood at 12.5 µg/mL. The “MIC, P. aeruginosa” value in data set [5] was found to be 6.25 µg/mL. For the same compound, in data set [6], the “MIC, MRSA” value was greater than 500 µg/mL and the “Sensitivity of MRSA (ATCC 33591) to the peptide” value is “insensitive”. Also, in the data set with HepG2 cell line, the “cell lines inhibition, HepG2” value is “more than 90%” and the “Cell viability, HepG2” value is recorded as 79.5%.
As to “WNPFKELEKAGQRVRDAIISAKPAVDVVGQATAIIK [Molecule 10, putative anti-HIV antimicrobial peptide, chemically synthesized by solid-phase method]”, in data set [3], the “MIC, MSSA” value was greater than 500 µg/mL. The “MIC, K. pneumoniae” value in data set [4] turned out to be 500 µg/mL. The “MIC, P. aeruginosa” value in data set [5] was greater than 500 µg/mL. For the same compound, the “MIC, MRSA” value in data set [6] is greater than 500 µg/mL.
